Patent US20150065499A1, “3-AMINOTHIENO[3,2-c]QUINOLINE DERIVATIVES, METHODS OF PREPARATION AND USES” (TEMPLE UNIVERSITY - OF THE COMMONWEALTH SYSTEM OF HIGHER …, priority 2012, published 2015)
pIC50: −log10 of the molar value. Counter-ions that a name gives are not always drawn.

Key:
[1] = test system: K562 (chronic myelogenous leukemia; leukemia cell line +ve for Bcr-Abl); assay: Cancer cell assay, K562 tumor cells, viable cells after 96 hours; format: cell-based; details: 96 hours after treatment, called IC50
Protocol: (§1) The effect of the compounds of the invention on tumor cells was determined by the assay described by Latham et al., Oncogene 12:827-837 (1996). Tumor cells K562 (chronic myelogenous leukemia; leukemia cell line +ve for Bcr-Abl) or DU145 (prostate cancer) were plated in 12-well dishes at a cell density of 2.5×10^4 cells well. The plated cells were treated 24 hours later with a compound of the invention dissolved in DMSO at multiple concentrations ranging from 0.01 μM to 100 μM. The plates were examined 96 hours later under an inverted microscope, Olympus CK-2 using a 10× objective, and compound activity was noted by physical observation. When necessary, the total number of viable cells was determined by trypsinizing the wells and counting the number of viable cells, as determined by trypan blue exclusion, using a hemacytometer.

DU145 (prostate cancer) = assay: Cancer cell assay, DU145 tumor cells, viable cells after 96 hours; format: cell-based; details: Homo sapiens, DU-145, 96 hours after treatment, called IC50
Protocol: as §1

Molecule | pIC50 ([1]; Homo sapiens) | pIC50 (DU145 (prostate cancer)) | melting point [°C] | pIC50 [1]
COC(=O)c1sc2c(cnc3cc(OC)c(OC)cc32)c1NC(=O)c1ccccc1 [Example 19, Methyl 3-benzamido-7,8-dimethoxythieno[3,2-c]quinoline-2-carboxylate] | 6.60 to 7.00 | 6.30 to 6.60 | 205 to 208 | 
COc1cc2ncc3c(N)c(C(C)=O)sc3c2cc1OC [Example 6, 1-(3-Amino-7,8-dimethoxythieno[3,2-c]quinolin-2-yl)ethanone] | 6.00 to 6.30 | 5.00 to 6.00 | 260 to 263 | 
COC(=O)c1sc2c(cnc3cc(OC)c(OC)cc32)c1NC(=O)c1ccc(Cl)c([N+](=O)[O-])c1 [Example 22, Methyl 3-(4-chloro-3-nitrobenzamido)-7,8-dimethoxythieno[3,2-c]quinoline-2-carboxylate] | 6.30 to 7.00 | 6.00 to 6.30 | 260 to 262 | 
COc1cc2ncc3c(N)c(C#N)sc3c2cc1OC [Example 8, 3-Amino-7,8-dimethoxythieno[3,2-c]quinoline-2-carbonitrile] | 5.00 to 6.00 | 4.60 to 5.00 | 314 to 316 | 
Methyl 7,8-dimethoxy-3-(2-aminobenzamido)thieno[3,2-e]quinoline-2-carboxylate [Example 21] |  |  |  | > 6.00
COC(=O)c1sc2c(cnc3cc(OC)c(OC)cc32)c1NC(=O)c1ccc(OC)cc1 [Example 16, Methyl 7,8-dimethoxy-3-(4-methoxybenzamido)thieno[3,2-c]quinoline-2-carboxylate] | > 6.00 | > 6.00 | 255 to 258 | 
COC(=O)c1sc2c(cnc3cc(OC)c(OCCCN4CCOCC4)cc32)c1N [Example 15, Methyl 3-amino-7-methoxy-8-(3-morpholinopropoxy)thieno[3,2-c]quinoline-2-carboxylate] | 4.60 to 5.00 | 4.60 to 5.00 | 188 to 190 | 
Nc1c(C(=O)c2ccc(F)cc2)sc2c1cnc1cc(F)c(F)cc12 [Example 39, (3-Amino-7,8-difluorothieno[3,2-c]quinolin-2-yl)(4-fluorophenyl)methanone] | 4.12 | 4.12 | > 320 | 
COC(=O)c1sc2c(cnc3cc(OC)c(OC)cc32)c1NC(=O)c1ccccc1F [Example 17, Methyl 3-(2-fluorobenzamido)-7,8-dimethoxythieno[3,2-c]quinoline-2-carboxylate] | 6.60 to 7.00 | 6.00 to 6.30 | 237 to 240 | 
COC(=O)c1sc2c(cnc3cc(OC)c(OC)cc32)c1NC(=O)c1ccccc1[N+](=O)[O-] [Example 20, Methyl 7,8-dimethoxy-3-(2-nitrobenzamido)thieno[3,2-c]quinoline-2-carboxylate] | 5.52 | 4.60 | 178 to 181 | 
Nc1c(C(=O)c2ccc(F)cc2)sc2c1cnc1ccc(F)cc12 [Example 37, (3-Amino-8-fluorothieno[3,2-c]quinolin-2-yl)(4-fluorophenyl)methanone] | 6.82 | 5.30 | 276 to 278 | 
COC(=O)c1sc2c(cnc3cc(OC)c(OC)cc32)c1NC(=O)C(=O)Nc1ccc(N2CCN(C)CC2)cc1 [Example 28, Methyl 7,8-dimethoxy-3-(2-{[4-(4-methylpiperazin-1-yl)phenyl]amino}-2-oxoacetamido)thieno[3,2-c]quinoline-2-carboxylate] | 5.00 to 6.00 | 4.60 to 5.00 | 240 to 246 | 
COC(=O)c1sc2c(cnc3cc(OC)c(O)cc32)c1N [Example 10, Methyl 3-amino-8-hydroxy-7-methoxythieno[3,2-c]quinoline-2-carboxylate] | < 4.00 | < 4.00 | 277 to 280 | 
COC(=O)c1sc2c(c[n+](C)c3cc(OC)c(OC)cc23)c1N (as salt: iodide) [Example 30, 3-amino-7,8-dimethoxy-2-(methoxycarbonyl)-5-methylthieno[3,2-c]quinolin-5-ium iodide] |  |  | 249 to 251 | 
N#Cc1sc2c(cnc3cc(F)c(F)cc32)c1N [Example 38, 3-Amino-7,8-difluorothieno[3,2-c]quinoline-2-carbonitrile] | 4.60 | 4.60 | 300 to 301 | 
COC(=O)c1sc2c(cnc3cc(OC)c(OC)cc32)c1/N=C/N(C)C [Example 32, (E)-methyl 3-(((dimethylamino)methylene)amino)-7,8-dimethoxythieno[3,2-c]quinoline-2-carboxylate] | 4.60 to 5.00 | 4.60 to 5.00 | 173 to 175 | 
COC(=O)c1sc2c(cnc3cc(OCCCN4CCCCC4)c(OC)cc32)c1N [Example 12, Methyl 3-amino-8-methoxy-7-[3-(piperidin-1-yl)propoxy]thieno[3,2-c]quinoline-2-carboxylate] | 5.30 to 6.00 | 5.30 to 6.00 | 127 to 130 | 

Molecule | pIC50 ([1]; Homo sapiens) | pIC50 (DU145 (prostate cancer)) | melting point [°C] | pIC50 [1]
CCOC(=O)c1sc2c(cnc3cc(OC)c(OC)cc32)c1N [Example 2, Ethyl 3-amino-7,8-dimethoxythieno[3,2-c]quinolone-2-carboxylate] | 6.00 to 6.30 | < 6.00 | 215 to 218 | 
COC(=O)c1sc2c(cnc3cc(OC)c(OC)cc32)c1NC(=O)C(=O)N1CCOCC1 [Example 26, Methyl 7,8-dimethoxy-3-(2-morpholino-2-oxoacetamido)thieno[3,2-c]quinoline-2-carboxylate] | 4.00 to 4.30 | 4.30 to 4.60 | 232 to 234 | 
COC(=O)c1sc2c(c[n+](C)c3cc(OC)c(OC)cc23)c1N [Example 30, 3-amino-7,8-dimethoxy-2-(methoxycarbonyl)-5-methylthieno[3,2-c]quinolin-5-ium iodide] | 5.00 to 5.30 | < 5.00 |  | 
COc1ccc(C(=O)c2sc3c(cnc4cc(F)c(F)cc43)c2N)cc1 [Example 40, (3-Amino-7,8-difluorothieno[3,2-c]quinolin-2-yl)(4-methoxyphenyl)methanone] | 4.12 | 4.12 | 258 to 260 | 
COC(=O)c1sc2c(cnc3cc(OC)c(OC)cc32)c1NC(=O)C(=O)N1CCN(c2ccncc2)CC1 [Example 27, Methyl 7,8-dimethoxy-3-{2-oxo-2-[4-(pyridin-4-yl)piperazin-1-yl]acetamido}thieno[3,2-c]quinoline-2-carboxylate] | 5.00 to 6.00 | 5.00 to 6.00 | 245 to 248 | 
COC(=O)c1sc2c(cnc3cc(F)c(F)cc32)c1N [Example 35, Methyl 3-amino-7,8-difluorothieno[3,2-c]quinoline-2-carboxylate] | 5.00 | 5.00 | 298 to 300 | 
COc1cc2ncc3c(N)c(-c4nnn[nH]4)sc3c2cc1OC [Example 33, 7,8-dimethoxy-2-(1H-tetrazol-5-yl)thieno[3,2-e]quinolin-3-amine] | 4.30 to 4.60 | 4.00 to 4.30 | 252 to 255 | 
COc1cc2ncc3c(N)c(C(=O)C(F)(F)F)sc3c2cc1OC [Example 5, 1-(3-Amino-7,8-dimethoxythieno[3,2-c]quinolin-2-yl)-2,2,2-trifluoroethanone] | 5.00 to 6.00 | < 5.00 | 230 to 234 | 
COC(=O)c1sc2c(cnc3cc(OCc4ccccc4)c(OC)cc32)c1N [Example 4, Methyl 3-amino-7-benzyloxy-8-methoxythieno[3,2-c]quinolone-2-carboxylate] | < 5.00 | < 5.00 | 221 to 223 | 
COC(=O)c1sc2c(cnc3cc(OC)c(OCc4ccccc4)cc32)c1N [Example 7, Methyl 3-amino-8-benzyloxy-7-methoxythieno[3,2-c]quinoline-2-carboxylate] | < 5.00 | < 5.00 | 272 to 274 | 
COC(=O)c1sc2c(cnc3cc(OCCCN4CCOCC4)c(OC)cc32)c1N [Example 11, Methyl 3-amino-8-methoxy-7-(3-morpholinopropoxy)thieno[3,2-c]quinoline-2-carboxylate] | 5.00 to 6.00 | 5.00 to 6.00 | 117 to 120 | 
COc1ccc(C(=O)c2sc3c(cnc4ccc(F)cc43)c2N)cc1 [Example 41, (3-Amino-8-fluorothieno[3,2-c]quinolin-2-yl)(4-methoxyphenyl)methanone] | 6.22 | 5.00 | 256 to 258 | 
COC(=O)c1sc2c(cnc3cc(OC)c(OC)cc32)c1N [Example 1, Methyl 3-amino-7,8-dimethoxythieno[3,2-c]quinolone-2-carboxylate] | 6.82 | 6.22 | 260 to 262 | 
N#Cc1sc2c(cnc3ccc(F)cc32)c1N [Example 36, 3-Amino-8-fluorothieno[3,2-c]quinoline-2-carbonitrile] | 4.12 | 4.12 | > 300 | 
COC(=O)C[n+]1cc2c(N)c(C(=O)OC)sc2c2cc(OC)c(OC)cc21 [Example 31, 3-amino-7,8-dimethoxy-5-(2-methoxy-2-oxoethyl)-2-(methoxycarbonyl)thieno[3,2-c]quinolin-5-ium bromide] | 4.00 to 4.30 | < 4.00 |  | 
COC(=O)c1sc2c(cnc3cc(OC)c(OC)cc32)c1NC(=O)C(=O)N1CCN(C)CC1 [Example 25, Methyl 7,8-dimethoxy-3-[2-(4-methylpiperazin-1-yl)-2-oxoacetamido]thieno[3,2-c]quinoline-2-carboxylate] | 5.00 to 6.00 | 5.00 to 6.00 |  | 
